Assay results taken from ChEMBL document CHEMBL4325862, “Identification of novel quinazoline derivatives as potent antiplasmodial agents” (Eur J Med Chem, 2019).

Columns and labels:
[1] = molecular target: DNA (cytosine-5)-methyltransferase 1 (Homo sapiens, UniProt P26358); experiment: Inhibition of recombinant human DNMT1 using biotinylated DNA duplex as substrate measured after 2 hrs in presence of Adomet/[methyl-3H]Adomet by topcount method
[2] = molecular target: DNA (cytosine-5)-methyltransferase 3A (Homo sapiens, UniProt Q9Y6K1); experiment: Inhibition of recombinant human DNMT3a C-terminal catalytic domain (623 to 908 residues) using 5'-biotinylated/3'-FAM-oligonucleotide as substrate measured after 1 hr in presence of Adomet by fluorescence assay
Plasmodium falciparum [3] = experiment: Antiplasmodial activity against asynchronous form of Plasmodium falciparum 3D7 infected in human erythrocytes assessed as parasite growth inhibition at 10 uM after 48 hrs by SYBR green1 staining based flow cytometry relative to control; format: functional; settings: 3D7, 48 h
Plasmodium falciparum [4] = experiment: Antiplasmodial activity against asynchronous form of Plasmodium falciparum 3D7 infected in human erythrocytes assessed as parasite growth inhibition after 48 hrs by SYBR green1 staining based flow cytometry; format: functional, organism-based; settings: 3D7, 48 h
Histone deacetylase 1 = Histone deacetylase 1 (Homo sapiens, UniProt Q13547); experiment: Inhibition of recombinant human HDAC1 using RHK-K(Ac) as substrate by homogeneous fluorescence release assay
Histone deacetylase 4 = Histone deacetylase 4 (Homo sapiens, UniProt P56524); experiment: Inhibition of recombinant human HDAC4 using Boc-Lys(trifluoroacetyl)-AMC as substrate by homogeneous fluorescence release assay
[5] = molecular target: T1, Protein deacetylase HDAC6 (Homo sapiens, UniProt Q9UBN7); experiment: Inhibition of recombinant human HDAC6 using RHK-K(Ac) as substrate by homogeneous fluorescence release assay
T1 sequence (Q9UBN7 whole entry): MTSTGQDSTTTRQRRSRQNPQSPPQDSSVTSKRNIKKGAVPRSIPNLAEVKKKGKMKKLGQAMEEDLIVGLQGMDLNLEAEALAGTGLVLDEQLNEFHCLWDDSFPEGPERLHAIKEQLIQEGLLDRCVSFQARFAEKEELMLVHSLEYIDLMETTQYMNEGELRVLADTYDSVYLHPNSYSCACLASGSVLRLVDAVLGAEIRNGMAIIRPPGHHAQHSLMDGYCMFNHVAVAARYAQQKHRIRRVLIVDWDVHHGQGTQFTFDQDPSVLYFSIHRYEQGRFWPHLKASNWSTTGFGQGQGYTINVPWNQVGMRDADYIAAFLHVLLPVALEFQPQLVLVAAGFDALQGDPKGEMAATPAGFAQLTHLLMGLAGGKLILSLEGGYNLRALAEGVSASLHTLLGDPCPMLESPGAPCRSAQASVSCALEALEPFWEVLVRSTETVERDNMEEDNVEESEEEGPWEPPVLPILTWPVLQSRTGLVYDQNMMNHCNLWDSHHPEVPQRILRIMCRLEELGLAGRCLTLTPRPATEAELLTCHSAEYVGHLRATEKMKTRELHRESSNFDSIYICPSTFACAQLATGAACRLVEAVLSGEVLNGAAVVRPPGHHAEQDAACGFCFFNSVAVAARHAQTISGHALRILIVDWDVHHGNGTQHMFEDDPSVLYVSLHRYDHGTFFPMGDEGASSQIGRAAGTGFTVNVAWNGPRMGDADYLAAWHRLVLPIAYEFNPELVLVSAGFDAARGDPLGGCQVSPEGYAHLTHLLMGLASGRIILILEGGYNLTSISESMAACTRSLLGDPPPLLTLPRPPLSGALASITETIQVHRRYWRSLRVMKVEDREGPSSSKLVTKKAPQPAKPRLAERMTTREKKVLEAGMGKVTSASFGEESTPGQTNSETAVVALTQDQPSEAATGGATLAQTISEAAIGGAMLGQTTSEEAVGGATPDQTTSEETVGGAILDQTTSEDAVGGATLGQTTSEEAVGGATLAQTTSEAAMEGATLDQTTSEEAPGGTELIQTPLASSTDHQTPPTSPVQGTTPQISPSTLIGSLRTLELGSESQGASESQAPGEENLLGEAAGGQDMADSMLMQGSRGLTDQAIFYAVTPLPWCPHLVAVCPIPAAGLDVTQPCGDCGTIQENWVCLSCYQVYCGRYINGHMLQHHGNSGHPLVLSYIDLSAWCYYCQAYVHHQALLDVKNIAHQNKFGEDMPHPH

Plasmodium falciparum [6] = experiment: Antiplasmodial activity against Plasmodium falciparum Dd2 infected in human erythrocytes assessed as reduction in [3H]-hypoxanthine incorporation measured after 48 hrs by microbeta liquid scintillation counting method; format: functional, organism-based
Plasmodium falciparum [7] = experiment: Antiplasmodial activity against asynchronous form of Plasmodium falciparum W2 infected in human erythrocytes assessed as parasite growth inhibition after 48 hrs by SYBR green1 staining based flow cytometry; format: functional, organism-based; settings: W2, 48 h
[8] = Cytotoxicity against mouse spleen cells; format: cell-based
[9] = Selectivity index, ratio of IC50 for mouse spleen cells to IC50 for asynchronous form of Plasmodium falciparum 3D7 infected in human erythrocytes; format: toxicity, cell-based; settings: read-out: Ratio IC50
HFF = experiment: Cytotoxicity against HFF; format: cell-based; settings: Homo sapiens

Chain of DNA (cytosine-5)-methyltransferase 3A (Q9Y6K1 whole entry, looked up, the tested form may be a part): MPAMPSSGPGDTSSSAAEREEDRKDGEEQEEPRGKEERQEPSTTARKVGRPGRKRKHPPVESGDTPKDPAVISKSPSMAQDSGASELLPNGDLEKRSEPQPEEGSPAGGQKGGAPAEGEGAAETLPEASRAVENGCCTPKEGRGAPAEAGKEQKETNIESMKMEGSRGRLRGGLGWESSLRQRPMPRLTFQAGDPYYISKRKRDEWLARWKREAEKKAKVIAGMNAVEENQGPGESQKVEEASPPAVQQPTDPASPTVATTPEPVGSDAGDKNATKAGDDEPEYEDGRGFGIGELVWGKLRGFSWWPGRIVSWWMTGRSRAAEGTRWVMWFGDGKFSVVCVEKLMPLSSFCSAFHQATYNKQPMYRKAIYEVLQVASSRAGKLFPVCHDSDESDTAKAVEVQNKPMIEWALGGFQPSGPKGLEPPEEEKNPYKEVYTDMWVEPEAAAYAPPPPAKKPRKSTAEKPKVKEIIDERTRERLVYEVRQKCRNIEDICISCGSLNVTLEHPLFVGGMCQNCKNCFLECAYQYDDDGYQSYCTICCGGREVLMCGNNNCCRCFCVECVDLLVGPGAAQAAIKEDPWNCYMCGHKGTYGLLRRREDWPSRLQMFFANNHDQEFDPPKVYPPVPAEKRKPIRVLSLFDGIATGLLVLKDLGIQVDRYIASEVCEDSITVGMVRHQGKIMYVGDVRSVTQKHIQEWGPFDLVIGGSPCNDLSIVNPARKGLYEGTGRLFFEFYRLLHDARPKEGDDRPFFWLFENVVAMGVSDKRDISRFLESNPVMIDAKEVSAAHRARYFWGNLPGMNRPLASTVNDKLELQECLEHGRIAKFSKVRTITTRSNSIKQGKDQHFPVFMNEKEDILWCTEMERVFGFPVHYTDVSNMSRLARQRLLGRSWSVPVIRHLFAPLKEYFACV
Chain of DNA (cytosine-5)-methyltransferase 1 (P26358 whole entry, the tested form may be a part): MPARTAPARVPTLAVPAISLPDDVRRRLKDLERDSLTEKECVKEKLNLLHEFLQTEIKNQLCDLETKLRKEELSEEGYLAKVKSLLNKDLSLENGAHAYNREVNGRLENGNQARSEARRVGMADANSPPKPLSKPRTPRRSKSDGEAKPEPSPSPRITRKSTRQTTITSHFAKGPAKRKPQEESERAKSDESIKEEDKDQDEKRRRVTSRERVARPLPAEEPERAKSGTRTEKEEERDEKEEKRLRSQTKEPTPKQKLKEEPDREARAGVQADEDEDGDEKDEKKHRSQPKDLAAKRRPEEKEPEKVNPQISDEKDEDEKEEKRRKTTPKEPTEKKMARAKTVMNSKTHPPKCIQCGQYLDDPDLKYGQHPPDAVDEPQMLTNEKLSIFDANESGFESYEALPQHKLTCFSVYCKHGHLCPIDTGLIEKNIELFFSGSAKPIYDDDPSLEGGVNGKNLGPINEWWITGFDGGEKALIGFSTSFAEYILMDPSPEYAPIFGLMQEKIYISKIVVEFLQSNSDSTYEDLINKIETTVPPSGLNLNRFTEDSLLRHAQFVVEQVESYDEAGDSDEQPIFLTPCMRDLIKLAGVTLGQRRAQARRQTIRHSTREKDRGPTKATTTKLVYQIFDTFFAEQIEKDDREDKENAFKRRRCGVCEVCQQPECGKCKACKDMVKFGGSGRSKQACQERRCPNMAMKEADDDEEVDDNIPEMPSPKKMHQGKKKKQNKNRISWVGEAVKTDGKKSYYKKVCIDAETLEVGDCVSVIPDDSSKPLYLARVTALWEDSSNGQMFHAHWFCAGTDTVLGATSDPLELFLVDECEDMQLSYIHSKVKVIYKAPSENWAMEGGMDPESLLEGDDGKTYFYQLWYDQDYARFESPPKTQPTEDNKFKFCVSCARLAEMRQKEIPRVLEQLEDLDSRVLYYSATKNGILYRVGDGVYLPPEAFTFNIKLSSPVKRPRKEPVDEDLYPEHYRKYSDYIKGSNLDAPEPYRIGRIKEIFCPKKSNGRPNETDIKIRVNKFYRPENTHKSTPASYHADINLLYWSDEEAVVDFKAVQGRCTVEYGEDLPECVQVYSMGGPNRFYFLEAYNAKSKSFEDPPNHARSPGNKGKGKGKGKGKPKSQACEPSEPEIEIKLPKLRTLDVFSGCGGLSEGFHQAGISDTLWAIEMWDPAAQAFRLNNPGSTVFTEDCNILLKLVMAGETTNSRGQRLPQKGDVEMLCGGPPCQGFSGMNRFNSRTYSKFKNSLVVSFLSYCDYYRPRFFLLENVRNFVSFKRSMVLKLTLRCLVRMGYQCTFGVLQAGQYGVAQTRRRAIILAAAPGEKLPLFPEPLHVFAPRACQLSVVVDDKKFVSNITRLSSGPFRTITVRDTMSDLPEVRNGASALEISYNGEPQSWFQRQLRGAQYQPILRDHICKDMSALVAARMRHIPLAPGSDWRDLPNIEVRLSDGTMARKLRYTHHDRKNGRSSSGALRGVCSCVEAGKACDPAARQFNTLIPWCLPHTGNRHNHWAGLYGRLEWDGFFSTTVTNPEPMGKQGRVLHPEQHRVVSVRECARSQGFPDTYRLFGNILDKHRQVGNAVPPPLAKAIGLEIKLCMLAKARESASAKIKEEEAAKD
Chain of Histone deacetylase 4 (P56524 whole entry): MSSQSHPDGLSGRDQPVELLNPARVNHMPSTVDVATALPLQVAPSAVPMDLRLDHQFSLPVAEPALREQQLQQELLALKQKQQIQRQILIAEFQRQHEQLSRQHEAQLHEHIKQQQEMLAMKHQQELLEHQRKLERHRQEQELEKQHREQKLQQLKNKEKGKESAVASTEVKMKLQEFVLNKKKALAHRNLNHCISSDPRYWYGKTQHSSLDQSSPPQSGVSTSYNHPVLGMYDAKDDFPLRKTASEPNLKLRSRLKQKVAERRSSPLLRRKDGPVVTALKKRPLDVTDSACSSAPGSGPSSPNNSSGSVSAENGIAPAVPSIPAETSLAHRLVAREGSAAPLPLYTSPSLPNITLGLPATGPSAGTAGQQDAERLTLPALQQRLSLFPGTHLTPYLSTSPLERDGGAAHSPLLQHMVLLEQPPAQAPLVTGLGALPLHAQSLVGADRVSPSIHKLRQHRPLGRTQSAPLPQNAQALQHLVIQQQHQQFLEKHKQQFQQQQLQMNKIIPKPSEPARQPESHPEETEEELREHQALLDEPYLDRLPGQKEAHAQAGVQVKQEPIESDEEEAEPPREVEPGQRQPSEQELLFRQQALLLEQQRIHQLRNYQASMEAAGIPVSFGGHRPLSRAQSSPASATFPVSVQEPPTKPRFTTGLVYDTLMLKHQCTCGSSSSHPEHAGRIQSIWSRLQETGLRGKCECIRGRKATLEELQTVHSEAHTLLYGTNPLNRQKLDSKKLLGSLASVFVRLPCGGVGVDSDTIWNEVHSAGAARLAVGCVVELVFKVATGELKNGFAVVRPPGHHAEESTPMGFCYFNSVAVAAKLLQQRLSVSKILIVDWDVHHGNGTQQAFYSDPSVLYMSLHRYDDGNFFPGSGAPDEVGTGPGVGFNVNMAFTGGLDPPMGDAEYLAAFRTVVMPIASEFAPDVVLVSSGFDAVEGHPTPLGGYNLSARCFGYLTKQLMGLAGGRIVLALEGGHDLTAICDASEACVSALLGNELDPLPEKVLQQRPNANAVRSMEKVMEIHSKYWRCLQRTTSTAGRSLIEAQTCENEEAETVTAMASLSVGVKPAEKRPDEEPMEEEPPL
Chain of Histone deacetylase 1 (Q13547 whole entry): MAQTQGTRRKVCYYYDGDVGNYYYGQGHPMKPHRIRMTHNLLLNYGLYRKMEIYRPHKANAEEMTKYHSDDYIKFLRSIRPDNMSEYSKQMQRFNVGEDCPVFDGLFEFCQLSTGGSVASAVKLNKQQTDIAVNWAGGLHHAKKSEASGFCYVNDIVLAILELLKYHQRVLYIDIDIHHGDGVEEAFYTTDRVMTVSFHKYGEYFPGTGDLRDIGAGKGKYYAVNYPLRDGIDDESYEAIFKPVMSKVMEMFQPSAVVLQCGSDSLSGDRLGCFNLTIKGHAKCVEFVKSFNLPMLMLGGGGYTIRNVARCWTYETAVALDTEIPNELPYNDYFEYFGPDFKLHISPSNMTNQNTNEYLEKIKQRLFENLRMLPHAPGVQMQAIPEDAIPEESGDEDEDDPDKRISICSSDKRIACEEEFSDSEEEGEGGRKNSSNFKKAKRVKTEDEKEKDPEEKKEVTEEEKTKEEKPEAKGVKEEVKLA

SMILES | inhibition at 10 µM (Plasmodium falciparum [3]) [%] | IC50 (Plasmodium falciparum [4]) [nM] | other results
COc1ccc2nc(N3CCN(c4ccccc4)CC3)nc(NC3CCN(Cc4ccccc4)CC3)c2c1 | 100 | 52.5 | EC50 [1]: > 100 µM; EC50 [2]: 5.4 µM
CC1=NN(c2ccc(C(=O)O)cc2)C(=O)/C1=C\c1ccc(-c2cc(C)c(C)cc2[N+](=O)[O-])o1 | 12.8 | – | –
NC1CC1c1ccc(NC(=O)[C@H](Cc2ccccc2)NC(=O)OCc2ccccc2)cc1 (stereo partly specified) | 64.6 | > 1000 | –
O=C(/C=C/c1ccccc1CSc1nc(O)cc(-c2ccccc2)n1)NO | 2.8 | – | –
NC1CC1c1ccc(NC(=O)CCCCNC(=O)c2ccc(O)c3ncccc23)cc1 (stereo unspecified) | 97.8 | > 1000 | –
COc1cc2nc(N3CCN(c4ccccc4)CC3)nc(NC3CCN(Cc4ccccc4)CC3)c2cc1OC | 100 | 37.8 | EC50 [1]: > 100 µM; EC50 [2]: 5.4 µM
O=C1/C(=C/c2ccc(O)c(Br)c2)CN(Cc2ccccc2)C/C1=C\c1ccc(O)c(Br)c1 | 100 | > 1000 | –
Cn1c(/C=C/C(=O)NO)ccc1/C=C/C(=O)c1cccc(Cl)c1 | 89.6 | > 1000 | –
O=C(O)c1ccc(O)c2ncccc12 | 25.4 | – | –
O=C(CCCCSc1nc(-c2ccc(Cl)cc2)cc(=O)[nH]1)NO | 98 | 88.6 | –
O=C(/C=C/c1ccc(Cc2nnc(Cc3cccc4ccccc34)o2)cc1)NO | 98 | 244 | –
CCOC(=O)c1c(C)nc2ccccc2c1O | 60.1 | > 1000 | –
c1ccc(N2CCN(c3nc(NC4CCN(Cc5ccc6ccccc6c5)CC4)c4ccccc4n3)CC2)cc1 | 100 | 138 | EC50 [1]: > 100 µM; EC50 [2]: 2.4 µM
Nc1ccccc1NC(=O)c1ccc(CNC(=O)OCc2cccnc2)cc1 [ENTINOSTAT] | 50.9 | > 1000 | –
COc1ccc2c(NC3CCN(Cc4ccccc4)CC3)nc(N3CCN(c4ccccc4)CC3)nc2c1 | 100 | 83 | EC50 [1]: > 100 µM; EC50 [2]: 4.6 µM
c1ccc(CCCN2CCC(Nc3nc(N4CCN(c5ccccc5)CC4)nc4ccccc34)CC2)cc1 | 100 | 75.1 | EC50 [1]: > 100 µM; EC50 [2]: 5.1 µM
O=C(Cc1ccccc1)Nc1ccc(C(=O)NO)nc1 | 97.8 | > 1000 | IC50 (Histone deacetylase 1): 200 nM; IC50 (Histone deacetylase 4): 11 µM; IC50 [5]: 37 nM
CC(C)N(CCCNC(=O)Nc1ccc(C(C)(C)C)cc1)C[C@H]1O[C@@H](n2cnc3c(N)ncnc32)[C@H](O)[C@@H]1O | 9.7 | – | –
NC1CC1c1ccc(NC(=O)CCCNC(=O)c2ccc(O)c3ncccc23)cc1 (stereo unspecified) | 45.3 | – | –
CCCCCCCCCCCCCCC=C(C(=O)OCC)C(=O)OCC | 92.7 | > 1000 | –
COc1cc2nc(N3CCCN(C)CC3)nc(NC3CCN(Cc4ccccc4)CC3)c2cc1OC | 100 | 20.8 to 23.7 | IC50 (Plasmodium falciparum [6]): 9.7 nM; IC50 (Plasmodium falciparum [7]): 16.7 nM; IC50 [8]: 555 nM; selectivity ratio [9]: 23; IC50 (HFF): 5 µM

SMILES | inhibition at 10 µM (Plasmodium falciparum [3]) [%] | IC50 (Plasmodium falciparum [4]) [nM] | other results
Cc1cc(C)c(CNC(=O)c2cnn(-c3ccccc3)c2C)c(=O)[nH]1 | 14.7 | – | –
O=C(/C=C/c1ccc(NC(=O)Cc2cccc3ccccc23)cn1)NO | 96.8 to 97.9 | 10.2 to 21.1 | IC50 (Histone deacetylase 1): 100 nM; IC50 (Histone deacetylase 4): 2.7 µM; IC50 [5]: 15 nM; IC50 (Plasmodium falciparum [6]): 13.5 nM; IC50 (Plasmodium falciparum [7]): 15.3 nM; IC50 [8]: 120 nM; selectivity ratio [9]: 9; IC50 (HFF): > 10 µM
CC1=C(/C=C/C(C)=C/C=C/C(C)=C/C(=O)Nc2ccccc2N)C(C)(C)CCC1 | 97.1 | > 1000 | –
CCOC(=O)C1=CN(Cc2ccccc2)C=C(C(=O)OCC)C1c1ccccc1 | 97.2 | > 1000 | –
COc1cc2c(NC3CCN(C(C)C)CC3)nc(C3CCCCC3)nc2cc1OCCCN1CCCC1 | 100 | 67.9 to 68.7 | IC50 (Plasmodium falciparum [6]): 16.8 nM; IC50 (Plasmodium falciparum [7]): 38.5 nM; IC50 [8]: 1440 nM; selectivity ratio [9]: 21; IC50 (HFF): 2.29 µM
NC1CC1c1ccc(NC(=O)c2ccc(-c3ccccc3)cc2)cc1 (stereo unspecified) | 97.5 | > 1000 | –
O=C(CCCCCSc1nc(-c2ccc(-c3ccccc3)cc2)cc(=O)[nH]1)NO | 97.4 | 50.9 | IC50 (Histone deacetylase 1): 100 nM; IC50 (Histone deacetylase 4): > 50 µM; IC50 [5]: 9 nM
NC1CC1c1ccc(NC(=O)CCCCCNC(=O)c2ccc(O)c3ncccc23)cc1 (stereo unspecified) | 96.7 | > 1000 | –
O=C(Cc1cccc2ccccc12)Nc1ccc(C(=O)NO)nc1 | 97.9 | > 1000 | IC50 (Histone deacetylase 1): 300 nM; IC50 (Histone deacetylase 4): > 50 µM; IC50 [5]: 26 nM
CC(C(=O)Nc1cccc(/N=C/c2c(O)ccc3ccccc23)c1)c1ccccc1 (stereo unspecified) [SALERMIDE] | 72.3 | > 1000 | –
O=S(=O)(c1cccc(C(F)(F)F)c1)N1c2ccccc2-n2cccc2C1c1cccnc1 (stereo unspecified) | 99.5 | 671 | –
O=c1[nH]c(SCCN2CCN(c3ccccn3)CC2)nc2ccccc12 | 2 | – | –
O=C(CCCCCSc1nc(-c2ccc3ccccc3c2)cc(=O)[nH]1)NO | 97.4 | 79.4 | IC50 (Histone deacetylase 1): 1000 nM; IC50 (Histone deacetylase 4): > 50 µM; IC50 [5]: 17 nM
O=c1nc2oc3ccc4ccccc4c3cc-2c(=O)n1-c1ccccc1 | 80.5 | > 1000 | –
c1ccc(CCN2CCC(Nc3nc(N4CCN(c5ccccc5)CC4)nc4ccccc34)CC2)cc1 | 100 | 98.9 | EC50 [1]: > 100 µM; EC50 [2]: 5.4 µM
CC(C)(C)OC(=O)Nc1cccc(C(=O)/C=C/c2ccc(/C=C/C(=O)NO)cc2)c1 | 100 | 422 | –
O=C1/C(=C/c2ccc(O)c(Br)c2)CSC/C1=C\c1ccc(O)c(Br)c1 | 99.5 | 952 | –
NC1CC1c1ccc(NC(=O)c2ccc(O)c3ncccc23)cc1 (stereo unspecified) | 98.9 to 100 | 776 to 1000 | –
O=C(CCCCSc1nc(-c2ccc3ccccc3c2)cc(=O)[nH]1)NO | 97.9 | 25.2 | IC50 (Histone deacetylase 1): 1700 nM; IC50 (Histone deacetylase 4): > 50 µM; IC50 [5]: 12 nM
c1ccc(CN2CCC(Nc3nc(N4CCN(c5ccccc5)CC4)nc4ccccc34)CC2)cc1 | 100 | 326 | –
BrCCCc1nc(-c2ccc(Br)cc2)no1 | 18.7 | – | –
